Where a name gives a salt, the structure may show the parent alone.
Experiments:
Assay type in all cases: biochemical
[1] = target: T1, bovine plasma plasmin (Bos taurus, UniProt P06868); assay: Chromogenic assay, inhibition of plasmin; conditions: in vitro; substrate Chromozym PL; pH 8.0; 30 minutes at 30° C.
T1 construct: from tissue; host or cells: bovine plasma
Experimental: (§1) The inhibition of thrombin, trypsin, plasmin or factor Xa is measured in 96 well plate chromogenic assays. The percentage inhibition and IC50 are calculated from triplicate samples of an 8 concentration dose-response curve. From the substrate Km and IC50, the Ki for each inhibitor is calculated. All assays are carried out in a total incubation of 200 μl of 50 mM HEPES and 150 mM NaCl at pH 8.0, and all compound dilutions are preincubated with enzyme at room temperature for 15 minutes prior to addition of substrate. After 30 minutes incubation at 30° C., the O.D. is measured at […] in a 96 well plate reader. Thrombin activity is measured using bovine thrombin and S2238 (H-D-Phe-Pip-Arg-pNA), bovine pancreatic trypsin is assayed with S2222 (Benz-Isoleu-Glu-Gly-Arg-pNA), bovine plasma plasmin is assayed with Chromozym PL (Tosyl-Gly-Pro-Lys-pNA)and bovine factor Xa is assayed in 50 mM Tris,150mM NaCl,pH 7.5 buffer with S2222.

[2] = target: T2, bovine pancreatic trypsin (Bos taurus, UniProt P00760); assay: Chromogenic assay, inhibition of trypsin; conditions: in vitro; substrate S2222; pH 8.0; 30 minutes at 30° C.
T2 construct: from tissue; host or cells: bovine pancreas
T2 sequence (P00760 24-246): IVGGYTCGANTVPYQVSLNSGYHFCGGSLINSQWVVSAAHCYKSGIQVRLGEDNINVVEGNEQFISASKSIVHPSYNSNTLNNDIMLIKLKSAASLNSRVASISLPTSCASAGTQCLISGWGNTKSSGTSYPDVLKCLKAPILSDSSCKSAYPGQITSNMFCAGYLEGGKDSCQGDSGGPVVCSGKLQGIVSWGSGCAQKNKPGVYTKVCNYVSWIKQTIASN
Experimental: as §1

[3] = target: bovine thrombin (Bos taurus, UniProt P00735); assay: Chromogenic assay, inhibition of thrombin; conditions: in vitro; substrate S2238; pH 8.0; 30 minutes at 30° C.
Experimental: as §1

T1 sequence (P06868 584-812 limits assumed): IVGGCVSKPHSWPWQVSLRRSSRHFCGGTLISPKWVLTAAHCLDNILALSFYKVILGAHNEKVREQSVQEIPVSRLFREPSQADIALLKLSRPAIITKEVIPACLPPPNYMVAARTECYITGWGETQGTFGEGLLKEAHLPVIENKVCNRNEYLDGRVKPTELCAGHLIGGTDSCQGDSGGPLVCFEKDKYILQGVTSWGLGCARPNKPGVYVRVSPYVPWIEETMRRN
T1 sequence (P06868 105-583 partner limits assumed): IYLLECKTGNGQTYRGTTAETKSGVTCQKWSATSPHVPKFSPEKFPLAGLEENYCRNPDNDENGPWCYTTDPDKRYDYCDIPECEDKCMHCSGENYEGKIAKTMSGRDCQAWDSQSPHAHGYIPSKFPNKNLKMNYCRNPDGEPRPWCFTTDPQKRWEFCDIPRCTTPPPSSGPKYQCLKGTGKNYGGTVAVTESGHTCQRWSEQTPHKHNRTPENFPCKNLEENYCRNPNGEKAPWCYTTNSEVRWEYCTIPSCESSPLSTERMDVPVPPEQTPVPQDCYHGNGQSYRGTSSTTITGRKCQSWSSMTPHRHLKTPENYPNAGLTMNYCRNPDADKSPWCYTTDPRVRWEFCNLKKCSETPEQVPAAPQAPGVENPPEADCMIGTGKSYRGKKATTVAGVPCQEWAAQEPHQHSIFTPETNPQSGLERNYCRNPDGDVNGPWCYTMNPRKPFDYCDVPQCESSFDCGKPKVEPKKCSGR

Row | SMILES | Ki [1] [µM] | Ki [2] [nM] | Ki [3] [nM]
1 | CC1=CCN(C(=O)[C@H](Cc2cccc(C(=N)N)c2)NS(=O)(=O)c2ccc3c(c2)C(CC(=O)N(C)C)N(C)CC3)[C@@H](C(=O)O)C1 (stereo partly drawn) [Example 5, 1-{N-[1(R,S)-(N,N-Dimethylcarbamoylmethyl)-2-methyl-1,2,3,4-tetrahydroisoquinoline-7-sulphonyl]-3-amidino-(S)-phenylalanyl}-4-methyl-1 2,3,6-tetrahydropyridine-2(R-carboxylic acid dihydrochloride] | 6 | 54 | 2.2
2 | CC1=CCN(C(=O)[C@H](Cc2cccc(C(=N)N)c2)NS(=O)(=O)c2ccc3c(c2)CCN(C(C)C)CC3)[C@@H](C(=O)O)C1 [Example 8, 4-Methyl-1-{N-[3-(2-propyl]-2,3,4,5-tetrahydro-1H-3-benzazepine-7-sulphonyl-3-amidino-(S)-phenylalanyl}-1,2,3,6-tetrahydropyridine-2(R)-carboxylic acid dihydrochloride] | 1.8 | 40 | 6.4
3 | CC1=CCN(C(=O)[C@H](Cc2cccc(C(=N)N)c2)NS(=O)(=O)c2ccc3c(c2)CCN(C)C3)[C@@H](C(=O)O)C1 [Example 2, 4-Methyl-1-[N-(2-methyl-1,2,3,4-tetrahydroisoquinoline-6-sulphonyl)-3-amidino-(S)-phenylalanyl]-1,2,3,6-tetrahydropyridine-2(R)-carboxylic acid dihydrochloride] | 6.1 | 57 | 3.9

The next lines start with the values.

Row | Ki [1] [µM] | Ki [2] [nM] | Ki [3] [nM] | SMILES
4 | 14 | 320 | 78 | CC1=CCN(C(=O)[C@H](Cc2cccc(C(=N)N)c2)NS(=O)(=O)c2ccc3c(c2)CNCC3)C(C(=O)O)C1 (stereo partly drawn) [Example 15, 4-Methyl-1-[N-(1,2,3,4-tetrahydroisoquinoline-7-sulphonyl)-3-amidino-(S)-phenylalanvl]-1,2,3,6-tetrahydropyridine-2(R,S)-carboxylic acid dihydrochloride]
5 | 12 | 49 | 4 | C[C@@H]1CCN(C(=O)C(Cc2cccc(C(=N)N)c2)NS(=O)(=O)c2ccc3c(c2)CN(C)CC3)[C@@H](C(=O)O)C1 (stereo partly drawn) [Example 13, 4(R)-Methyl-1-[N-(2-methyl-1,2,3,4-tetrahydroisoquinoline-7-sulphonyl)-3-amidino-(R,S)-phenylalanyl]piperidine-2(R)-carboxylic acid dihydrochloride]
6 | 0.18 | 48 | 1 | CC1=CCN(C(=O)[C@H](Cc2cccc(C(=N)N)c2)NS(=O)(=O)c2ccc3c(c2)CN(Cc2ccccc2)CC3)[C@@H](C(=O)O)C1 [Example 10, 1-[N-(2-Benzyl-1,2,3,4-tetrahydroisoquinoline-7-sulphonyl)-3-amidino-(S)-phenylalanyl]-4-methyl-1,2,3,6-tetrahydropyridine-2(R)-carboxylic acid dihydrochloride]

— patent publication US5861393A, “Antithrombotic amidinophenylalanine and amidinopyridylalanine derivatives” (Pfizer Inc., priority 1993, dated 1999)
